The record followed here is ChEMBL document CHEMBL4402528, “Multi-target drugs active against leishmaniasis: A paradigm of drug repurposing” (Eur J Med Chem, 2019).

In brackets after ≈: the same amount, converted by molar mass.

The subject of one assay is Candida albicans. Description: Antifungal activity against Candida albicans assessed as reduction in viability after 24 hrs by broth microdilution assay. It is filed as functional.
The subject of assay [1] is Leishmania amazonensis. The assay can be described thus: Antileishmanial activity against Leishmania amazonensis promastigotes assessed as reduction in parasite viability after 72 hrs by CCK-8 assay. It is filed as functional, organism-based. For orientation: Formazan colour is commonly taken as a measure of viable cells.
For assay [2], the system named is Leishmania amazonensis. Description: Antileishmanial activity against Leishmania amazonensis MHOM/BR/75/Josefa intracellular amastigotes infected in CF-1 macrophages assessed as reduction in parasite viability after 72 hrs by optical microscopic method. It is filed as functional, organism-based.
In assay [3] the test system is Leishmania amazonensis. Description: Antileishmanial activity against Leishmania amazonensis MHOM/BR/75/Josefa promastigotes assessed as reduction in parasite viability after 72 hrs by Neubauer chamber counting method. The assay is classed as functional, organism-based.
For assay [4], the system named is Leishmania amazonensis. Description: Antileishmanial activity against Leishmania amazonensis MHOM/BR/77/LTB 0016 promastigotes assessed as reduction in parasite viability after 72 hrs by MTT assay. It is filed as functional, organism-based. Particulars: MHOM/BR/77/LTB 0016, 72 h.
Assay [5] deals with Leishmania amazonensis. The assay can be described thus: Antileishmanial activity against Leishmania amazonensis MHOM/BR/77/LTB 0016 intracellular amastigotes infected in BALB/c Peritoneal macrophages assessed as reduction in parasite viability after 72 hrs by light microscopic method. The assay is classed as functional, organism-based. The conditions noted are these: MHOM/BR/77/LTB 0016, 72 h.

The subject of the next assay is Leishmania donovani. Description: Antileishmanial activity against Leishmania donovani LCR-133 promastigotes assessed as reduction in RNA synthesis at 95 uM preincubated for 30 mins followed by addition of 5-[3H]-uridine and measured up to 145 mins by liquid scintillation counting method relative o control. Also noted: scale not given: the % may be the effect or the level left. It is filed as functional.

Another assay deals with Leishmania mexicana. Description: Antileishmanial activity against Leishmania mexicana intracellular amastigotes infected in J774 macrophages assessed as reduction in parasite viability after 72 hrs. Particulars: J774, 72 h. It is filed as functional, organism-based.

In general, MIC refers to the lowest concentration found to suppress growth. Take `C[C@@H]1C[C@@H](C)/C=C/C=C/C=C/C=C/C=C/C=C/C=C/[C@H](O[C@@H]2O[C@H](C)[C@@H](O)[C@H](N)[C@@H]2O)C[C@@H]2O[C@](O)(C[C@@H](O)C[C@@H](O)[C@H](O)CC[C@@H](O)C[C@@H](O)CC(=O)O[C@H]1C)C[C@H](O)[C@H]2C(=O)O`: the MIC with Candida albicans was 4 µM (≈ 3.63 µg/mL).
The same measure, in the same setting: to `C[C@@H]1[C@H](O)[C@@H](C)/C=C/C=C/C=C/C=C/C=C/C=C/C=C/[C@H](O[C@@H]2O[C@H](C)[C@@H](O)[C@H](N)[C@@H]2O)C[C@@H]2O[C@](O)(C[C@@H](O)C[C@@H](O)[C@H](O)CC[C@@H](O)C[C@@H](O)CC(=O)O[C@H]1C)C[C@H](O)[C@H]2C(=O)O` [AMPHOTERICIN B] belongs 0.25 µM (≈ 0.231 µg/mL).
By IC50 is commonly meant the point on the concentration scale where inhibition reaches its midpoint. As for `OC(Cn1cncn1)(Cn1cncn1)c1ccc(F)cc1F` [FLUCONAZOLE], the IC50 with Leishmania amazonensis [1] was 10100 nM.
As for `CCC(C)n1ncn(-c2ccc(N3CCN(c4ccc(OCC5COC(Cn6cncn6)(c6ccc(Cl)cc6Cl)O5)cc4)CC3)cc2)c1=O` (centres undefined) [ITRACONAZOLE], the IC50 in the assay on Leishmania amazonensis [2] came to 80 nM; in the assay with Leishmania amazonensis [3], 440 nM.
With `CC(=O)N1CCN(c2ccc(OCC3COC(Cn4ccnc4)(c4ccc(Cl)cc4Cl)O3)cc2)CC1` (centres undefined) [KETOCONAZOLE], the IC50 in the assay with Leishmania amazonensis [4] is 2700 nM; in the assay with Leishmania amazonensis [5], 6800 nM.
Regarding `CCCCCCCCCCCCCCCCOP(=O)([O-])OCC[N+](C)(C)C` [MILTEFOSINE], the Activity in the assay with Leishmania donovani is reported as 96.32%.
As for `CC(C)=CCC/C(C)=C/CNCCNC1C2CC3CC(C2)CC1C3` (centres undefined) [SQ109], in the assay on Leishmania mexicana, the IC50 was found to be 11 nM.
